# According to patent US10758536B2, “Method for treating shingles with N-methanocarbathymidine (N-MCT)” (priority 2015, dated 2020):
# “Also recorded” adds a separate entry of the source.
# How the values were obtained:
# VZV [1] = test: SCID-Hu mouse model of VZV replication, oral dose range; format: in vivo, varicella-zoster virus
# Procedure: SCID-hu mice with human skin xenografts were infected intradermally with VZV and treated orally twice daily with vehicle, PFA (positive control), or N-MCT at 5, 10, 20, 25, 50, or 100 mg/kg/day. Virus spread was measured daily by in vivo bioluminescence imaging (IVIS). […] The results were analyzed for statistical significance by ANOVA and Dunnett's post hoc test of multiple comparisons (GraphPad Prism).
# VZV [2] = test: Skin organ culture topical Assay 1: dose dependence (carbopol gel); format: cell-based, varicella-zoster virus
# Procedure: (§1) Place 36 mL deionized sterile water into small beaker with stir bar. Slowly waft 900 mg of carbopol (980 NF, Lot # CCONLCC013, Lubrizol Corp) into water, avoiding clumps. Add equal volume N-MCT in 20% hydroxypropyl-β-cyclodextrin (Sigma) at 2× to reach the desired concentration. Add 2 drops NaOH (18% solution) to attain a pH near 5.0. Store at 4° C. The 0.5% cidofovir gel was made in a similar manner except that cidofovir was dissolved in water. The DMSO vehicle was prepared by adding a 2% DMSO solution in water to the carbopol suspension at a 1:1 ratio. Hydroxypropyl-β-cyclodextrin (HPBCD) was prepared by mixing 5.0 g with 20 mL sterile water. Stock solution of N-MCT was prepared by dissolving 90 mg N-MCT in 9 mL 20% HPBCD and sonicating for 1 min.
# A skin organ culture model was used to evaluate N-MCT as a topical treatment for VZV. Human skin explants were inoculated with VZV by scarification and treated daily from 1-4 days post infection with N-MCT (0.05, 0.5, or 5%) or cidofovir (0.5%, positive control) in a carbopol gel.
# (§2) Human fetal skin was purchased from ABR and delivered by overnight courier on wet ice. The tissue was cleaned, disinfected in betadine and 70% ethanol, then cut into pieces approximately 1-cm^2. Each piece was inoculated with VZV-BAC-Luc strain that expresses firefly luciferase. Approximately 3 hours after inoculation, the pieces of skin were placed in NetWells above tissue culture medium and incubated overnight. The next day (Day 1) each piece of skin was soaked in D-luciferin for 45 min, and then scanned in the IVIS-50 instrument to measure Total Flux, which is a correlate of VZV pfu. The drug treatment began on Day 1 or later by spreading an aqueous gel (carbopol) containing N-MCT at concentrations of 0.05, 0.5, or 5% (see Assay 1 in Table 4 below). One group of skin was treated with cidofovir ([…] in carbopol gel) for a positive control. Each group contained 4-6 pieces of skin. The drug was applied daily until Day 5 (or other intervals), and then the skin pieces were scanned by IVIS to determine virus yield. […] The results were analyzed for statistical significance by ANOVA and Dunnett's post hoc test of multiple comparisons (GraphPad Prism).
# VZV [3] = test: Skin organ culture topical Assay 2: delayed treatment; format: cell-based, varicella-zoster virus
# Procedure: as §1, §2
# This assay differs from Assay 1 in that the Vehicle was prepared with 10% HPBCD, which is the solvent for the N-MCT. Refer to Assay #2 in Table 4 above. Three groups were treated on Days 1-4 and scanned on Day 5, which is the typical assay protocol. Two groups were treated after a delay of several days, which more closely reflects a clinical scenario of zoster. All treated groups received the same preparation of 0.5% N-MCT in carbopol with 10% HPBCD. VZV yield was reduced in the Vehicle group during the treatment phase, and then rebounded. This was likely due to the effects of HPBCD, which has known antiviral properties. […] In contrast, VZV yield increased until Day 5 in the group that received no treatment until after this scan. The difference between this group and the Vehicle group was notable, since they were expected to be similar.
# VZV [4] = test: Skin organ culture Assays 4 and 5: topical ointment vehicles; format: cell-based, varicella-zoster virus
# Source text: Another objective of the invention was to test N-MCT at 0.5% in a variety of topical formulations in the SOC assay. The purpose was to determine the optimal topical formulation for N-MCT in full-thickness human skin. Human fetal skin was purchased from ABR and delivered by overnight courier on wet ice. The tissue was cleaned, disinfected in betadine and 70% ethanol, then cut into pieces approximately 1-cm^2. Each piece was inoculated with VZV-BAC-Luc strain that expresses firefly luciferase. Approximately 3 hours after inoculation, the pieces of skin were placed in NetWells above tissue culture medium and incubated overnight. The next day (Day 1) each piece of skin was soaked in D-luciferin for 45 min, and then scanned in the IVIS-50 instrument to measure Total Flux, which is a correlate of VZV pfu. The negative control group was not treated with drug or vehicle. The positive control drug treatment began on Day 1 by placing the skin, in NetWells, over medium containing 0.1 μg/mL N-MCT (see Table 5 below). The ointments were formulated with N-MCT by adding dry powder to the vehicle on a glass slab, then mixing thoroughly with a metal spatula. The ointments were warmed to 37° C. before spreading on the skin pieces with a Dacron swab. […] The virus yield in each piece of skin was calculated by dividing the Total Flux measured on Day 5 by Day […]
# [5] = Mouse weights and tolerability
# Procedure: CB.17 scid/beige male mice were implanted subcutaneously with human fetal skin (the same type of specimens used for the skin organ culture assay). After 3 weeks engraftment period, the skin implants were inoculated with VZV-BAC-Luc. The mice were divided into 5 groups of 12 mice: vehicle, positive control drug, N-MCT low dose, medium dose, and high dose (see FIGS. 3A, 3B, 4A and 4B). Treatment began approximately 2 hours after the inoculation surgery and was administered by oral gavage. Treatment continued twice daily (8:30 am and 8:30 pm) on Days 1-7. The mice were scanned in the IVIS-200 instrument daily from Day 1-8. The mice were weighed before the start of the study and daily during the treatment phase.
# CB.17 scid/beige male mice were implanted subcutaneously with human fetal skin (the same type of specimens used for the skin organ culture assay). After 3 weeks engraftment period, the skin implants were inoculated with VZV-BAC-Luc (5×10^3 pfu/implant). The mice were divided into 5 groups of 12 mice: vehicle, positive control drug cidofovir delayed to Days 4-11, N-MCT 50 mg/kg Days 0-7, Days 4-11, or Days 7-13 (see Table 6 below). Treatment began approximately 2 hours after the inoculation surgery and was administered by oral gavage. Treatment continued twice daily (8:30 am and 8:30 pm) on schedule. […] The mice were scanned in the IVIS-200 instrument daily from Day 1-14. The mice were weighed before the start of the study and daily during the treatment phase. The antiviral effects of N-MCT were determined by assessing the VZV growth kinetics and rates (Log10 Total Flux/day).
# The animals used in this experiment were SCID-beige mice purchased from Taconic (age 6-7 weeks).
# [6] = 50 mg/kg oral gavage, delayed-treatment study
# [7] = all doses, dose-range study in mice
smiles,measurement,setting,value
"Cc1cn([C@]23C[C@H](O)[C@@H](CO)[C@@H]2C3)c(=O)[nH]c1=O [N-MCT, N-methanocarbathymidine]","VZV spread in mouse model, effectiveness",VZV [1]; 5-100 mg/kg/day p.o. BID,prevents VZV spread; also recorded: effective
same,VZV yield and growth rates compared to vehicle,"VZV [1]; all doses, N-MCT 5-100 mg/kg/day BID, p<0.0001, ANOVA and Dunnett",significantly reduced
same,"doses more effective than control antiviral compounds (PAA, PFA, cidofovir)",VZV [1]; mouse model of virus replication,> 10 mg/kg/day
same,optimal dose,"VZV [1]; p.o. BID, SCID-Hu mice",approximately 20 mg/kg/day
same,VZV yield compared to vehicle,"VZV [2]; N-MCT 0.05, 0.5, 5% or cidofovir in carbopol gel, daily, p<0.0004",significantly reduced
same,"VZV replication in skin explants, topical gel","VZV [2]; N-MCT 0.05-5%, cidofovir 0.5% in carbopol gel",prevented VZV replication
same,reduction of virus yield compared to the vehicle group,"VZV [2]; all concentrations, topical carbopol gel, p=0.0004",approximately 100 fold
same,"effective topical concentration, as low as","VZV [2]; carbopol gel with 10% hydroxypropyl-β-cyclodextrin, human skin explants",≥ 0.05%
same,"VZV yield, treatment on Days 3-6","VZV [3]; 0.5% N-MCT QD 3-6 dpi, by Day 7",reduced to a similar low level
same,"VZV yield, treatment begun on Day 5",VZV [3]; 0.5% N-MCT QD 5-8 dpi,decreased sharply
same,VZV rebound after treatment on Days 1-4,VZV [3]; 0.5% N-MCT in carbopol with 10% HPBCD,no rebound was observed
same,"VZV yield, treatment on Days 1-4","VZV [3]; 0.5% in carbopol QD 1-4 dpi, during and after treatment",equally reduced
same,effectiveness as topical treatment when VZV infection established for 3-5 days,VZV [3]; skin organ culture,highly effective
same,effectiveness as topical formulation in SOC model,"VZV [4]; 0.5% N-MCT in ointments, daily, scan Day 5",highly effective
same,"virus yield on Day 10 after treatment stopped, fold less","VZV [4]; no treatment after Day 5, groups treated with N-MCT",100 fold
same,tolerability,[5]; [6],well tolerated; also recorded: well-tolerated
same,weight loss,[5]; [6],minimal weight loss
same,tolerability,[5]; [7],well tolerated
same,weight loss,[5]; [7],did not cause excessive weight loss
